Measurements from patent publication US8883963B2 (Cadila Healthcare Limited, priority 2007, dated 2014).
Non-standard residues stand in square brackets, D forms with d. Residues, ends and D or L forms follow the SMILES beside them. ξ: configuration not given here. ξBip(2'-Et-4'-OMe) = CCc1cc(OC)ccc1-c1ccc(CC(N)C(=O)O)cc1; ξNva(5-(3,5-Me2-Ph)) = Cc1cc(C)cc(CCCC(N)C(=O)O)c1; ξNva(5-(3-Cl-Ph)) = NC(CCCc1cccc(Cl)c1)C(=O)O; Aib = CC(C)(N)C(=O)O

How the values were obtained:
[1] = tested on: C57BL/6J mice (mild hyperglycemic); assay: In vivo glucose reduction, acute single dose 120-min time-course, i.p. route; parameters: species or system mouse; unit not given here; settings: male C57BL/6J mice
[2] = tested on: C57BL/6J mice (mild hyperglycemic); assay: In vivo glucose reduction, acute single dose 120-min time-course, oral route; parameters: species or system mouse; unit not given here; settings: male C57BL/6J mice, 2 μM/kg oral
Experimental: Acute single dose 120-min time-course experiments were carried out in male C57BL/6J or db/db mice, age 8-12 weeks, bred in-house. Animals were housed in groups of 6 animals per cage, for a week, in order to habituate them to vivarium conditions (25±4° C., 60-65% relative humidity, 12:12 h light:dark cycle, with lights on at 7.30 am). All the animal experiments were carried out according to the internationally valid guidelines following approval by the ‘Zydus Research Center animal ethical committee’.
Two days prior to the study, the animals were randomised and divided into 5 groups (n=6), based upon their fed glucose levels. On the day of experiment, food was withdrawn from all the cages, water was given ad-libitum and were kept for overnight fasting. Vehicle (normal saline)/test/standard compounds were administered intraperitoneally (i.p.) or orally, on a body weight basis. Soon after the 0 min. blood collection from each animal, the subsequent blood collections were done at 30, 60 and 120 or up to 240 min., via retro-orbital route, under light ether anesthesia (Chen, D., et al., Diabetes Obesity Metabolism, 2005, 7, 307. Kim, J. G. et al., Diabetes, 2003, 52, 751).
Blood samples were centrifuged and the separated serum was immediately subjected for the glucose estimation. Serum for insulin estimation was stored at −70° C. until used for the insulin estimation. The glucose estimation was carried out with DPEC-GOD/POD method (Ranbaxy Fine Chemicals Limited, Diagnostic division, India), using Spectramax-190, in 96-microwell plate reader (Molecular devices Corporation, Sunnyvale, Calif.). […] The AUC and BCAUC obtained from graphs were analyzed for one way ANOVA, followed by Dunnett's post test, using Graph Pad prism software. Furthermore, the insulin estimation was carried out using rat/mouse insulin ELISA kit (Linco research, Missouri USA). Changes in the blood glucose levels, at 0, 30, 60 and 120 min, with selected peptidomimetics are shown in Table 7 (via ip route of administration) and Table 8 (via oral route of administration) respectively.

Compound: CCc1cc(OC)ccc1-c1ccc(CC(NC(=O)[C@H](CC(=O)O)NC(=O)[C@H](CO)NC(=O)[C@@H](NC(=O)C(C)(Cc2ccccc2F)NC(=O)[C@@H](NC(=O)CNC(=O)[C@H](CC(C(F)(F)F)C(F)(F)F)NC(=O)C(C)(C)NC(=O)[C@@H](N)Cc2c[nH]cn2)[C@@H](C)O)[C@H](C)O)C(=O)NC(CCCc2ccccc2)C(N)=O)cc1 (single isomer, unassigned) [Seq. ID. 225]
- blood glucose levels ([1]; 10 nM/kg i.p., 0 min): 184 ± 5.0
- blood glucose levels ([1]; 10 nM/kg i.p., 30 min): 122 ± 3.8
- blood glucose levels ([1]; 10 nM/kg i.p., 60 min): 128 ± 2.1
- blood glucose levels ([1]; 10 nM/kg i.p., 120 min): 149 ± 2.3
- blood glucose levels ([2]; 0 min): 183 ± 2.3
- blood glucose levels ([2]; 30 min): 119 ± 3.0
- blood glucose levels ([2]; 60 min): 112 ± 4.3
- blood glucose levels ([2]; 120 min): 109 ± 2.6

Compound: CCc1cc(OC)ccc1-c1ccc(CC(NC(=O)[C@H](CC(=O)O)NC(=O)[C@H](CO)NC(=O)[C@@H](NC(=O)[C@H](Cc2ccccc2)NC(=O)[C@@H](NC(=O)CNC(=O)[C@H](CCC(N)=O)NC(=O)[C@H](C)NC(=O)[C@@H](N)Cc2c[nH]cn2)[C@@H](C)O)[C@@H](C)O)C(=O)NC(CCCc2cccc(Cl)c2)C(N)=O)cc1 (stereo partly drawn) [Seq. ID. 15] (H-HAQGTFTSD[ξBip(2'-Et-4'-OMe)][ξNva(5-(3-Cl-Ph))]-NH2)
- blood glucose levels ([1]; 30 nM/kg i.p., 0 min): 180 ± 3.2
- blood glucose levels ([1]; 30 nM/kg i.p., 30 min): 119 ± 3.2
- blood glucose levels ([1]; 30 nM/kg i.p., 60 min): 117 ± 3.1
- blood glucose levels ([1]; 30 nM/kg i.p., 120 min): 118 ± 1.8
- blood glucose levels ([2]; 0 min): 183 ± 2.4
- blood glucose levels ([2]; 30 min): 116 ± 3.1
- blood glucose levels ([2]; 60 min): 112 ± 4.8
- blood glucose levels ([2]; 120 min): 110 ± 2.5

Compound: CCc1cc(OC)ccc1-c1ccc(CC(NC(=O)[C@H](CC(=O)O)NC(=O)[C@H](CO)NC(=O)[C@@H](NC(=O)[C@H](Cc2ccccc2)NC(=O)[C@@H](NC(=O)CNC(=O)[C@H](CCC(N)=O)NC(=O)C(C)(C)NC(=O)[C@@H](N)Cc2c[nH]cn2)[C@@H](C)O)[C@@H](C)O)C(=O)NC(CCCc2cc(C)cc(C)c2)C(N)=O)cc1 (stereo partly drawn) [Seq. ID. 18] (H-H[Aib]QGTFTSD[ξBip(2'-Et-4'-OMe)][ξNva(5-(3,5-Me2-Ph))]-NH2)
- blood glucose levels ([1]; 30 nM/kg i.p., 0 min): 183 ± 3.6
- blood glucose levels ([1]; 30 nM/kg i.p., 30 min): 118 ± 3.3
- blood glucose levels ([1]; 30 nM/kg i.p., 60 min): 116 ± 3.2
- blood glucose levels ([1]; 30 nM/kg i.p., 120 min): 117 ± 1.9
- blood glucose levels ([2]; 0 min): 185 ± 2.3
- blood glucose levels ([2]; 30 min): 115 ± 3.8
- blood glucose levels ([2]; 60 min): 113 ± 4.9
- blood glucose levels ([2]; 120 min): 109 ± 2.2
